This is an account of results in paper PMC11882969 (Nature Communications, 2025).

Series [1] has as its system mice. The experiment in a line: Hargreaves radiant heat test. The format is in vivo, mouse.
Series [2] relates to mice. In words: Hot plate, 52 °C. The format is in vivo, mouse.
For series [3], the system named is mice. In words: Rotarod test. The format is in vivo, mouse. For orientation: In the rotarod test animals must keep their balance on a rotating rod.
Series [4] concerns mice. In words: Conditioned place preference. It counts as in vivo, mouse. Conditions: for Individual animal scores (FigS11e): test not printed on the sheet; for conditioned place preference: drug-paired vs vehicle-paired chamber. Here is the method: Briefly, mice were first habituated to the test apparatus, twice, and their preference for each chamber recorded for 30 min (Pretest). Two conditioning days followed in which mice received the vehicle control or the compound, and 30 min later restricted for 30 min in the preferred or non-preferred chamber, respectively. On day 5 (Test day), mice were allowed to roam freely between the 3 chambers of the apparatus and their preference for each chamber recorded for 30 min. To calculate the CPP score, we subtracted the time spent in each chamber of the box on the Pretest day from that of the Test day (CPP score = Test - Pretest).

Series [5] concerns mice. The experiment in a line: Acetone test, cold allodynia after spared nerve injury. The format is in vivo, mouse. The method, then:
Mice were placed on a wire mesh and thirty min after an i.p. injection of the compounds we applied a drop (50 μL) of acetone on the ventral aspect of the hindpaw, 5 times every 30 sec. We recorded the number of nocifensive behaviors (paw lifts/licks/shakes/bites) over the 5 applications.

Series [6] relates to mice. In words: Catalepsy test, vertical wire mesh. The format is in vivo, mouse. The method, then:
Thirty min after an i.p. injection of the compounds, mice were placed on a vertical wire mesh and the latency to move all four paws was recorded.

The test system of series [7] is mice.
Description: For all behavioral tests, the experimenter was always blind to treatment. Animals were first habituated for 30-60 min in Plexiglas cylinders and then tested 30 min after i.p. or i.t. injection of the compounds. The thermal (Hargreaves, hotplate and tail flick) and ambulatory (rotarod) tests were conducted as described[96]. Briefly, hindpaw thermal sensitivity was measured with a radiant heat source (Hargreaves) or on a hotplate at 52 °C. For the tail flick assay, sensitivity was measured by immersing the tail into a 50 °C water bath. For the ambulatory (rotarod) test, before testing with any compound, mice underwent three trainings on three consecutive days until they reach 300 sec. Each training has three sessions of five min each. Therapeutic window was calculated as the ratio of the minimum dose of side effect phenotype to the minimum dose of analgesic phenotype.
Series [8] can be described thus: Pharmacokinetics: plasma, brain, CSF. Conditions: 0.2 mg/kg i.p., CD-1 mice.
For series [9], the system named is mice. In words: Tail flick, 50 °C water bath. The format is in vivo, mouse. Particulars: for analgesic response normalised to baseline, WT vs CB1R KO (Figure5d), individual animals: 10 mg/kg.
Another series can be described thus: in vitro. Particulars: mouse, plasma.
Series [10] has as its target T1, human PTH receptor (PTHR) (Homo sapiens, UniProt Q03431).
T1 construct: expressed in transfected cells; host or cells: HEK293 (HEK293SL) cells, transient co-transfection with the Gαs biosensor
T1 sequence (Q03431 27-593): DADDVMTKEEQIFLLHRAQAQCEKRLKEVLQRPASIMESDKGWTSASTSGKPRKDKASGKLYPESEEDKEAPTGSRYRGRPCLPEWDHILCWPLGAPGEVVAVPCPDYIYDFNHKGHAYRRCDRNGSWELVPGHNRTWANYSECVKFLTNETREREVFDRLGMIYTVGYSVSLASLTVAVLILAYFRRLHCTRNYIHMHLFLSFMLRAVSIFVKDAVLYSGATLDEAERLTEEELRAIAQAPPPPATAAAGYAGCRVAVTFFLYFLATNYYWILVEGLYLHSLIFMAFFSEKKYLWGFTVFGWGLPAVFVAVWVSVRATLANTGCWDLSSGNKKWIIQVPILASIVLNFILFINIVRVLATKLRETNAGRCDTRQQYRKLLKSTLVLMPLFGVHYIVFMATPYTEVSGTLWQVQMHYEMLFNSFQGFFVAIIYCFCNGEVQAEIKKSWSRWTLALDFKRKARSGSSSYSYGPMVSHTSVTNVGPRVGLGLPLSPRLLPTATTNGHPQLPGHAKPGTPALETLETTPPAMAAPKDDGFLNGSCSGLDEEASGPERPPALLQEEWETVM
In words: Gs bioSens-All control assay. The format is cell-based. Conditions: raw signal, log[PTH]. The text has this:
Experimental data were produced in singleton and curves were fitted using the four-parameter logistic non-linear regression model (GraphPad Prism 9). Data are expressed as uBRET.

The mark [11] stands for this setting: 0.2 mg/kg, individual animals, FigS11b.

Several values for one entry are separate records, joined by “and”; a condition that tells them apart may be missing. Equal entries are not always repeated. Where two headings read alike, the source gives them in different places.

Description for in vitro: The reactions were stopped by adding 240 μL 90% acetonitrile containing internal standard with subsequent plasma proteins sedimentation by centrifuging at 5796 g for 5 min. Supernatants were analyzed by the HPLC system coupled with a tandem mass spectrometer. The percentage of the test compounds remaining after incubation in plasma and their half-lives (T1/2) were calculated.

In the case of `CCCCCCC(C)(C)c1ccc([C@@H]2C[C@H](O)CC[C@H]2CCCO)c(O)c1` [CP-55940], the “Dose response, individual animals (FigS11a)” value with mice [1] (Dose 0.2 mg/kg, test not printed on the sheet) is 256.9 and 109.7 and 71.66 and 121.4 and 287.7.

On to `CCCCCCC(C)(C)c1ccc([C@@H]2C[C@H](O)CC[C@H]2CCCO)c(O)c1` [CP-55,940, reference compound], for which, in the series on mice [2] (setting [11]), the Jump was 18 and 0 (2×) and 4 (2×). Further, the Paw lick with mice [2] (setting [11]) is 0 (4×) and 10. Also, the Paw shake in the series on mice [2] (setting [11]) is 0 (2×) and 6 and 12 and 8. Further, the Paw withdrawal in the series with mice [2] (setting [11]) was 18 and 34 and 32 and 36 and 64. Further, the “hot plate response normalised to baseline (Figure4b), individual animals” value was 98.1 and 121.1 and 123.4 and 122.6 and 97.5 with mice [2] (Dose 0.2 mg/kg); 256.6 and 226.6 and 210.5 and 222.4 and 213.7 in the series with mice [2] (Dose 0.5 mg/kg). In addition, the “lowest dose with significantly increased hot plate latency” value in the series with mice [2] (i.p., 30 min after injection) is 0.5 mg/kg. Besides, the “lowest dose with significantly increased latency, Hargreaves” value in the series with mice [1] (i.p., 30 min after injection) was 0.2 mg/kg. Further, the “rotarod performance (Figure6b), individual animals” value with mice [3] (Dose 0.1 mg/kg) is 284 and 282 and 285 and 300; with mice [3] (Dose 0.2 mg/kg), 261 and 257 and 210 and 300 and 91 and 161 and 258 and 208 and 236 and 275; in the series on mice [3] (Dose 1.0 mg/kg), 200 and 204 and 173 and 236 and 203. Further, the “motor impairment at analgesic doses” value in the series with mice [3] (rotarod and open field) was “caused motor impairment in both the rotarod and open field tests”. The “Individual animal scores (FigS11e)” value in the series on mice [4] (0.5 mg/kg) is -18 and -21 and -54 and 119 and -213 and 8 and -326 and -238. Further, the conditioned place preference result in the series on mice [4] is given as “may actually induce some aversion”. Moreover, the “acetone test response after spared nerve injury (Figure5b), individual animals” value in the series with mice [5] (Dose 0.2 mg/kg) is 36 and 40 and 48 and 76. Further, in the series with mice [5] (spared nerve injury, i.p.), the “effect on acetone-induced nocifensive behaviors” value is given as “strongly reduced spared nerve injury-induced cold allodynia”. The “catalepsy (Figure6c), individual animals” value in the series with mice [6] (0.2 mg/kg dose) was 17 and 15 and 13 and 3 and 5; in the series on mice [6] (0.5 mg/kg dose), 6.8 and 5 (2×) and 30 and 5.6 and 4 and 2 (2×) and 7 and 8.5; in the series on mice [6] (1 mg/kg dose) it was 15.3 and 23.3 and 17.7 and 28 and 15.7. Also, the “dose at which catalepsy starts” value with mice [6] (i.p.) is given as 0.2 mg/kg. Further, the “therapeutic window, Acetone” value in the series on mice [7] (Figure 6e, vs rotarod) stood at 1; in the series on mice [7] (Figure 6d, vs open field), 1. For the same molecule, the “therapeutic window, Hot Plate” value stood at 0.4 in the series with mice [7] (Figure 6e, vs rotarod) and 0.4 with mice [7] (Figure 6d, vs open field). Moreover, the “therapeutic window, Tail Flick” value came to 0.4 in the series on mice [7] (Figure 6e, vs rotarod) and 0.4 in the series with mice [7] (Figure 6d, vs open field). Besides, the “therapeutic window, analgesia vs catalepsy” value with mice [7] (Figure 6f) is “no window between analgesia and catalepsy”. Also, in [8], the “brain Cmax” value stood at 19.2 ng/g. Further, the “brain T1/2” value in series [8] came to 127 min.

For the molecule `CN1CC[C@]23c4c5ccc(O)c4O[C@H]2[C@@H](O)C=C[C@H]3[C@H]1C5` [morphine, reference compound], the “analgesic response normalised to baseline, WT vs CB1R KO (Figure5d), individual animals” value in the series with mice [9] (CB1R KO mice) is 186.205 and 193.839 and 225.055 and 193.021 and 200.382; in the series on mice [9] (WT mice), 138.803 and 169.174 and 209.668 and 177.834 and 174.541. Further, the “Response relative to baseline (baseline about 100)” value with mice [9] (Morphine 3 mg/kg, individual animals, sheet Figure7b, test not given) was 153.4 and 95 and 153.1 and 101.6 and 124.1 and 132.6 and 140.4 and 96.4 and 125 and 194 and 137 and 131 and 126 and 149.7 and 136.2. Also, the “Individual animal scores (FigS11e)” value in the series on mice [4] (20 mg/kg) is 125 and 92 and 189 and -5 and 874 and 419 and 158 and 182. For the same molecule, in the series on mice [4], the conditioned place preference entry was “significantly increased their preference”.

Broadly, the half-life is the time needed for the level to fall by half in the phase considered. A high value points to slow decline. In general, share remaining refers to the share of the starting amount still present when the sample was taken. As for `CC(C)[N+](C)(CCOC(=O)C1c2ccccc2Oc2ccccc21)C(C)C` [Propantheline, reference compound], in the series “in vitro”, the half-life at 1 µM stood at 28 min; the share remaining at 20 min, 1 µM was determined as 75%; the share remaining at 40 min, 1 µM is 50%; the fraction remaining at 1 h, 1 µM worked out at 31%. Also, the amount remaining at 2 h, 1 µM in the series “in vitro” was found to be 6%.

For PTH, the PTH control response was 5622 in [10] (M -6.22186); 5653 in series [10] (M -6.53946); 5394 in [10] (M -6.85696); 5221 in series [10] (M -7.17551); 5149 in [10] (M -7.49499); 5011 in series [10] (M -7.80694). The PTH control response in series [10] (M -8.11922) was 4856; in series [10] (M -8.44613) it was 4893; in [10] (M -8.76448), 5167; in [10] (M -9.07573) it was 5440; in series [10] (M -9.22186) it was 6053; in [10] (M -9.39794) it was 5806. Besides, the PTH control response in [10] (M -9.68787) is given as 6475; in series [10] (M -10.1552), 7581; in series [10] (M -10.6199) it was 8362; in series [10] (M -11.0969), 9720; in series [10] (M -11.5529) it was 9963; in series [10] (M -12.0177), 10394. Also, the PTH control response in series [10] (M -12.4948) was 10587; in series [10] (M -12.9208), 10667; in series [10] (M -13.3979) it was 10336; in [10] (M -13.8861), 10932; in series [10] (M -14), 11358 and 10843.
